The results in this text go back to patent US7879876B2, “Sulfonamide derivatives and use thereof for the modulation of metalloproteinases” (Merck Serono SA, priority 2005, dated 2011).

The inhibition in vivo is the drop in the measured response relative to a control, in per cent. Read a low inhibition in vivo as a weak effect.

For this assay, the system named is IL-2-induced peritoneal recruitment of lymphocytes. Description: IL-2-induced peritoneal recruitment of lymphocytes. The assay is classed as in vivo, C3H/HEN mice. As to conditions: Mus musculus, Lymphocyte, po; 3 mg/kg p.o., 15 min prior to IL-2; mice; 24 h after IL-2. The procedure:
Administration of IL-2 intraperitoneally causes migration of lymphocytes into the intraperitoneal cavity. This is a model for the cellular migration that occurs during inflammation.
C3H/HEN mice (Elevage Janvier, France) were intraperitoneally injected with IL-2 (Serono Pharmaceutical Research Institute, 20 μg/kg, in saline). Compounds of the invention were suspended in 0.5% carboxymethylcellulose (CMC)/0.25% tween-20 and were administered by s.c. or p.o. route (10 ml/kg) 15 min prior to administration of IL-2.
Twenty-four hours after administration of IL-2, peritoneal white blood cells were collected by 3 successive lavages of the peritoneal cavity with 5 ml phosphate buffered saline (PBS)-1 mM EDTA (+4° C.). The suspension was centrifuged (1700 g×10 min at +4° C.). The resulting pellet was suspended in 1 ml PBS-1 mM EDTA.
Lymphocytes were identified and counted using a Beckman/Coulter counter.
The animals were divided into 6 groups (6 mice each group):
Group 1: (baseline) received 0.5% CMC/0.25% tween-20 (vehicle of compound of the invention) and saline (vehicle of IL-2);
Group 2: (control IL-2) received 0.5% CMC/0.25% tween-20 and injection of IL-2;
Group 3: Experimental group (Compound of the invention Dose 1) received a compound of the invention and injection of IL-2;
Group 4: Experimental group (Compound of the invention Dose 2) received a compound of the invention and injection of IL-2;
Group 5: Experimental group (Compound of the invention Dose 3) received a compound of the invention and injection of IL-2;
Group 6: Reference group received reference compound dexamethasone and injection of IL-2.
Inhibition of lymphocyte recruitment was calculated as follows:
Where Ly 1=Number of lymphocytes in group 1 (E3/μl), Ly 2=Number of lymphocytes in group 2 (E3/μl), Ly X=Number of lymphocytes in group X (3-5) (E3/μl).
With `CC1(C)OC[C@H](C(CS(=O)(=O)N2Cc3ccccc3C2)N(O)C=O)O1` (stereo partly drawn) [Example 16, N-{2-(1,3-dihydro-2H-isoindol-2-ylsulfonyl)-1-[(4S)-2,2-dimethyl-1,3-dioxolan-4-yl]ethyl}-N-hydroxyformamide], testing at 3 mg/kg gave an inhibition in vivo of 44 ± 7%.
The value for `CC(C)c1ccc2c(c1)CCN(S(=O)(=O)CC([C@H]1COC(C)(C)O1)N(O)C=O)C2` (stereo partly drawn) [Example 18, N-{1-[(4S)-2,2-dimethyl-1,3-dioxolan-4-yl]-2-[(6-isopropyl-3,4-dihydroisoquinolin-2(1H)-yl)sulfonyl]ethyl}-N-hydroxyformamide] was 39 ± 7%.
Consider `CC1(C)OC[C@H](C(CS(=O)(=O)N2CCc3ccc(Cl)cc3C2)N(O)C=O)O1` (stereo partly drawn) [Example 19, N-{2-[(7-chloro-3,4-dihydroisoquinolin-2(1H)-yl)sulfonyl]-1-[(4S)-2,2-dimethyl-1,3-dioxolan-4-yl]ethyl}-N-hydroxyformamide], for which the inhibition in vivo at 3 mg/kg was 62 ± 9%.
The result for `O=CN(O)C(CS(=O)(=O)N1CCc2ccc(Cl)cc2C1)C1CCCC1` (stereo not drawn) [Example 21, N-{2-[(7-chloro-3,4-dihydroisoquinolin-2(1H)-yl)sulfonyl]-1-cyclopentylethyl}-N-hydroxyformamide] reads 43 ± 9%; that for `O=CN(O)C(CS(=O)(=O)N1CCc2cc(C(F)(F)F)ccc2C1)C1CCCC1` (stereo not drawn) [Example 25, N-(1-cyclopentyl-2-{[6-(trifluoromethyl)-3,4-dihydro-isoquinolin-2(1H)-yl]sulfonyl}ethyl)-N-hydroxyformamide], 37 ± 7%; that for `O=CN(O)[C@H](CS(=O)(=O)N1CCc2ccc(C(F)(F)F)cc2C1)[C@H]1CCCO1` [Example 27, N-hydroxy-N-((1S)-1-[(2R)-tetrahydrofuran-2-yl]-2-{[7-(trifluoromethyl)-3,4-dihydroisoquinolin-2(1H)-yl]sulfonyl}ethyl)formamide], 46 ± 9%.
`CC1(C)OC[C@H](C(CS(=O)(=O)N2CCc3ccc(C(F)(F)F)cc3C2)N(O)C=O)O1` (stereo partly drawn) [Example 28, N-(1-[(4S)-2,2-dimethyl-1,3-dioxolan-4-yl]-2-{[7-(trifluoro-methyl)-3,4-dihydroisoquinolin-2(1H)-yl]sulfonyl}ethyl)-N-hydroxyformamide] registered an inhibition in vivo at 3 mg/kg of 62 ± 5%.
`O=CN(O)[C@H](CS(=O)(=O)N1Cc2ccc(F)cc2C1)[C@H]1CCCO1` [Example 29, N-{(1S)-2-[(5-fluoro-1,3-dihydro-2H-isoindol-2-yl)-sulfonyl]-1-[(2R)-tetrahydrofuran-2-yl]ethyl}-N-hydroxyformamide] returned an inhibition in vivo at 3 mg/kg of 29 ± 11%.
`CC(C)(Cc1ccccc1)C(CS(=O)(=O)N1CCc2cc(C(F)(F)F)ccc2C1)N(O)C=O` (stereo not drawn) [Example 31, N-[2,2-dimethyl-3-phenyl-1-({[6-(trifluoromethyl)-3,4-dihydroisoquinolin-2(1H)-yl]sulfonyl}methyl)propyl]-N-hydroxyformamide] had an inhibition in vivo at 3 mg/kg of 31 ± 10%.
The result for `CCC(CC)C(CS(=O)(=O)N1CCc2cc(C(C)C)ccc2C1)N(O)C=O` (stereo not drawn) [Example 35, N-(2-ethyl-1-{[(6-isopropyl-3,4-dihydroisoquinolin-2(1H)-yl)sulfonyl]methyl}butyl)-N-hydroxyformamide] reads 50 ± 8%; that for `CC(C)(C)CC(CS(=O)(=O)N1CCc2cc(Cl)c(Cl)cc2C1)N(O)C=O` (stereo not drawn) [Example 42, N-(1-{[(6,7-dichloro-3,4-dihydroisoquinolin-2(1H)-yl)-sulfonyl]methyl}-3,3-dimethylbutyl)-N-hydroxyformamide], 40 ± 10%.
The value for `O=CN(O)C(CO)CS(=O)(=O)N1CCc2cc(Cl)c(Cl)cc2C1` (stereo not drawn) [Example 49, N-[2-[(6,7-dichloro-3,4-dihydroisoquinolin-2(1H)-yl)-sulfonyl]-1-(hydroxymethyl)ethyl]-N-hydroxyformamide] was 16 ± 12%.
